Reference: PubChem BioAssay (NCI)
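The compound was tested at five concentrations on cells cultured in 96-well plates, with a 48-hour exposure period. Abbreviation: GI50, concentration required for 50% inhibition of growth. Definition used: TGI = concentration required for complete inhibition of growth.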

Tests used:
Experiment in all cases: growth of human tumour cells (NCI), 48 h
UACC-257 melanoma = tested on: UACC-257 melanoma
A498 renal = tested on: A498 renal
HCT-15 colon = tested on: HCT-15 colon
COLO 205 colon = tested on: COLO 205 colon
SF-539 CNS = tested on: SF-539 CNS
OVCAR-8 ovarian = tested on: OVCAR-8 ovarian
OVCAR-4 ovarian = tested on: OVCAR-4 ovarian
MDA-MB-231 breast = tested on: MDA-MB-231 breast
UO-31 renal = tested on: UO-31 renal
A549 NSCLC = tested on: A549 NSCLC
ACHN renal = tested on: ACHN renal
OVCAR-3 ovarian = tested on: OVCAR-3 ovarian
SNB-75 CNS = tested on: SNB-75 CNS
SF-268 CNS = tested on: SF-268 CNS
SK-MEL-2 melanoma = tested on: SK-MEL-2 melanoma
RPMI-8226 leukemia = tested on: RPMI-8226 leukemia
HS 578T breast = tested on: HS 578T breast
SW-620 colon = tested on: SW-620 colon
CCRF-CEM leukemia = tested on: CCRF-CEM leukemia
HOP-92 NSCLC = tested on: HOP-92 NSCLC
K-562 leukemia = tested on: K-562 leukemia
IGROV1 ovarian = tested on: IGROV1 ovarian
LOX IMVI melanoma = tested on: LOX IMVI melanoma
PC-3 prostate = tested on: PC-3 prostate
SK-MEL-28 melanoma = tested on: SK-MEL-28 melanoma
UACC-62 melanoma = tested on: UACC-62 melanoma

SMILES: N#C[Se]CCN1C(=O)C2C(C1=O)[C@H]1C=C[C@@H]2S1 (some centres not stated)
- GI50 (UACC-257 melanoma): 1.97 µM
- TGI (UACC-257 melanoma): 5.4 µM
- GI50 (A498 renal): 1.51 µM
- TGI (A498 renal): 3.33 µM
- GI50 (HCT-15 colon): 2.2 µM
- TGI (HCT-15 colon): 5.77 µM
- GI50 (COLO 205 colon): 2.45 µM
- TGI (COLO 205 colon): 6.42 µM
- GI50 (SF-539 CNS): 1.69 µM
- TGI (SF-539 CNS): 3.18 µM
- GI50 (OVCAR-8 ovarian): 2.11 µM
- TGI (OVCAR-8 ovarian): 5.26 µM
- GI50 (OVCAR-4 ovarian): 1.85 µM
- TGI (OVCAR-4 ovarian): 6.1 µM
- GI50 (MDA-MB-231 breast): 2.24 µM
- TGI (MDA-MB-231 breast): 5.2 µM
- GI50 (UO-31 renal): 1.36 µM
- TGI (UO-31 renal): 2.9 µM
- GI50 (A549 NSCLC): 1.93 µM
- TGI (A549 NSCLC): 4.56 µM
- GI50 (ACHN renal): 2.07 µM
- TGI (ACHN renal): 3.99 µM
- GI50 (OVCAR-3 ovarian): 1.94 µM
- TGI (OVCAR-3 ovarian): 3.85 µM
- GI50 (SNB-75 CNS): 1.39 µM
- TGI (SNB-75 CNS): 3.85 µM
- GI50 (SF-268 CNS): 1.95 µM
- TGI (SF-268 CNS): 3.86 µM
- GI50 (SK-MEL-2 melanoma): 2.44 µM
- TGI (SK-MEL-2 melanoma): 6.43 µM
- GI50 (RPMI-8226 leukemia): 2.04 µM
- TGI (RPMI-8226 leukemia): 4.84 µM
- GI50 (HS 578T breast): 1.75 µM
- TGI (HS 578T breast): 6.21 µM
- GI50 (SW-620 colon): 2.87 µM
- TGI (SW-620 colon): 8.19 µM
- GI50 (CCRF-CEM leukemia): 1.84 µM
- TGI (CCRF-CEM leukemia): 6.14 µM
- GI50 (HOP-92 NSCLC): 1.88 µM
- TGI (HOP-92 NSCLC): 3.94 µM
- GI50 (K-562 leukemia): 3.24 µM
- TGI (K-562 leukemia): 12 µM
- GI50 (IGROV1 ovarian): 1.59 µM
- TGI (IGROV1 ovarian): 3.48 µM
- GI50 (LOX IMVI melanoma): 1.67 µM
- TGI (LOX IMVI melanoma): 4.12 µM
- GI50 (PC-3 prostate): 2.11 µM
- TGI (PC-3 prostate): 5.9 µM
- GI50 (SK-MEL-28 melanoma): 1.92 µM
- TGI (SK-MEL-28 melanoma): 5.02 µM
- GI50 (UACC-62 melanoma): 1.98 µM
- TGI (UACC-62 melanoma): 4.27 µM
